# Earlier results in US20170020130A1, “METHOD OF PREPARATION AND COMPOSITION OF ANT[…]” (Eltron Research & Development, LLC, priority 2008, published 2017).
# Conditions: alkaline pH (7.5≦pH≦10.5), near the pKa
structure (smiles),measurement,value
CC(=O)OO [peracetic acid],stability (decomposition with evolution of oxygen),least stable
